This is an account of results in ChEMBL document CHEMBL1124940, “N-[(arylmethoxy)phenyl] carboxylic acids, hydroxamic acids, tetrazoles, and sulfonyl carboxamides. Potent orally active leukotriene D4 antagonists of novel structure” (J Med Chem, 1990).

The test system of data set [1] is Cavia porcellus. The experiment in a line: Inhibition of LTD4-induced broncho constriction in Guinea pig after intragastrical administration of a dose of 0.3 mg/kg. It is filed as functional. Conditions: po, route intragastric.
For data set [2], the system named is Cavia porcellus. The experiment in a line: Inhibition of LTD4-induced broncho constriction in Guinea pig after intragastrical administration of a dose of 1 mg/kg. The format is functional. Conditions: po, route intragastric.
For data set [3], the system named is Cavia porcellus. The experiment in a line: Inhibition of LTD4-induced broncho constriction in Guinea pig after intragastrical administration of a dose of 25 mg/kg. It is filed as functional. The following applies: po, route intragastric.
The subject of data set [4] is Cavia porcellus. In words: Inhibition of LTD4-induced broncho constriction in Guinea pig after intragastrical administration of a dose of 3 mg/kg. It is filed as functional. The following applies: po, route intragastric.
Data set [5] relates to Cavia porcellus. In words: Tested for the inhibition of ovalbumin- induced bronchoconstriction in Guinea pig, injected intragastrically. Compound dose is 10 mg/kg. It is filed as functional. Conditions: po, route intragastric.
Data set [6] concerns Cavia porcellus. In words: Tested for the inhibition of ovalbumin- induced bronchoconstriction in Guinea pig, injected intragastrically. Compound dose is 25 mg/kg. It is filed as functional. The following applies: po, route intragastric.
The test system of data set [7] is Cavia porcellus. The experiment in a line: Tested for the inhibition of LTD4-induced broncho constriction in Guinea pig, injected intraduodenally at a dose of 25 mg/kg. The format is functional. The following applies: route intraduodenal.
Data set [8] concerns Cavia porcellus. The experiment in a line: Tested for the inhibition of LTD4-induced bronchoconstriction in Guinea pig, injected intraduodenally, dose of 3 mg/kg. The following applies: route intraduodenal. It is filed as functional.
Data set [9] deals with Cavia porcellus. In words: Tested for the inhibition of LTD4-induced broncho constriction in Guinea pig, compound injected intragastrically at a dose of 25 mg/kg. Conditions: po, route intragastric. The format is functional.
Data set [10] has as its system Cavia porcellus. In words: Dissociation constant was determined in vitro after intraduodenal administration in isolated guinea pig trachea. The format is ADME, organism-based. Conditions: in vivo, other.
Data set [11] deals with Cavia porcellus. The experiment in a line: Inhibition of LTD4-induced broncho constriction in Guinea pig after intraduodenal administration of a dose of 3 mg/kg. It is filed as functional.
Data set [12] relates to Cavia porcellus. The experiment in a line: In vitro inhibition of LTD4-induced bronchoconstriction into isolated guinea pig trachea by injecting intragastrically. The format is functional. The following applies: po.
The test system of data set [13] is Cavia porcellus. The experiment in a line: Tested for the inhibition of ovalbumin induced bronchoconstriction in Guinea pig, compound injected intraduodenally, dose is 10 mg/kg. The following applies: route intraduodenal. It is filed as functional.
In data set [14] the test system is Cavia porcellus. The experiment in a line: Tested for the inhibition of ovalbumin induced bronchoconstriction in Guinea pig, compound injected intraduodenally, dose is 25 mg/kg. The format is functional. The following applies: route intraduodenal.
Data set [15] concerns Cavia porcellus. The experiment in a line: Tested for the inhibition of ovalbumin- induced bronchoconstriction in Guinea pig, compound injected intragastrically, dose of 3 mg/kg. Conditions: po, route intragastric. The format is functional.
For data set [16], the system named is Cavia porcellus. The experiment in a line: Tested for the inhibition of LTD4-induced bronchoconstriction in Guinea pig, compound injected intragastrically, dose of 25 mg/kg. The format is functional. Conditions: po, route intragastric.
In data set [17] the test system is Cavia porcellus. The experiment in a line: In vitro inhibition of LTD4-induced bronchoconstriction in isolated guinea pig trachea by injecting intraduodenally. It is filed as functional. The following applies: intraduodenal.
Data set [18] concerns Cavia porcellus. In words: In vitro Inhibition of ovalbumin-induced bronchoconstriction in isolated guinea pig trachea by injecting intraduodenally. The format is functional. Conditions: intraduodenal.
The subject of data set [19] is Cavia porcellus. The experiment in a line: Tested for the inhibition of ovalbumin- induced bronchoconstriction in Guinea pig, compound injected intragastrically, dose of 25 mg/kg. The following applies: po, route intragastric. It is filed as functional.
Data set [20] is filed under the species Cavia porcellus. The experiment in a line: Dose of antagonist that produces 50% inhibition of ovalbumin-induced bronchoconstriction. It is filed as functional.
Data set [21] has as its target T1, Polyunsaturated fatty acid 5-lipoxygenase (Rattus norvegicus, UniProt P12527).
T1 sequence (P12527 whole entry): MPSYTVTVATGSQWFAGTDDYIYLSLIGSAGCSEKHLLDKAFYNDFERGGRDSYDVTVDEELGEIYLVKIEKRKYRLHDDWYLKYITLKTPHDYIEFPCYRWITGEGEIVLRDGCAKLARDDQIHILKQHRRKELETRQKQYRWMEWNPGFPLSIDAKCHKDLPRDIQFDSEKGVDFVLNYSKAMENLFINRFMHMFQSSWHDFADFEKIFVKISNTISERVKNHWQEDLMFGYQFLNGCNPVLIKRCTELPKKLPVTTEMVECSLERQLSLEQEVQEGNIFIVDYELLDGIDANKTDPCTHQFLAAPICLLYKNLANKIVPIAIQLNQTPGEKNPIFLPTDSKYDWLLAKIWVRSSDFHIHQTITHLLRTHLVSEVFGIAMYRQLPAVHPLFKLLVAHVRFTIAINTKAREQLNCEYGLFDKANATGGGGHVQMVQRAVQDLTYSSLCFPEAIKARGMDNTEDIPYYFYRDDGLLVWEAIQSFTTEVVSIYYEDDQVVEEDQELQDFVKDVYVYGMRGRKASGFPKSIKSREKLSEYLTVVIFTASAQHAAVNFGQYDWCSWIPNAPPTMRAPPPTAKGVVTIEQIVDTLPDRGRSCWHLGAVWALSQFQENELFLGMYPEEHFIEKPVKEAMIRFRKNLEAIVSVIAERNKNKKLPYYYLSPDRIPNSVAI
The experiment in a line: Concentration for 50% inhibition of A-23187-stimulated radiolabeled 5-HETE and TXB2 synthesis by PMN 5-lipoxygenase. The format is functional.

The subject of another data set is Rattus norvegicus. The experiment in a line: Antiinflammatory effect was studied in a rat carrageenan paw edema (CE) assay at 50 mg/kg. It is filed as functional. On the technique in general: The carrageenan paw model is a standard test of acute inflammation.
Data set [22] concerns Cavia porcellus. The experiment in a line: Tested for the inhibition of LTD4-induced bronchoconstriction in Guinea pig, compound injected intragastrically, dose of 3 mg/kg. The format is functional. The following applies: po, route intragastric.
For data set [23], the system named is Cavia porcellus. In words: Tested for the inhibition of LTD4-induced broncho constriction in Guinea pig, injected intraduodenally at a dose of 5 mg/kg. The format is functional. The following applies: route intraduodenal.

Take `O=C(NS(=O)(=O)c1ccccc1)c1cccc(OCc2ccc3ccccc3n2)c1`: in the data set on Cavia porcellus [1], the inhibition in vivo at 0.3 mg/kg was under 12%. The inhibition in vivo at 1 mg/kg in the data set on Cavia porcellus [2] was under 82%.

For `c1ccc2nc(COc3ccc(Cc4nnn[nH]4)cc3)ccc2c1`, the inhibition in vivo at 25 mg/kg is 90% with Cavia porcellus [3], 76% with Cavia porcellus [6] and 88% in the data set on Cavia porcellus [7]. Further, the inhibition in vivo at 3 mg/kg in the data set with Cavia porcellus [4] is 4%; in the data set on Cavia porcellus [8] it was -15%. Also, the inhibition in vivo at 10 mg/kg in the data set with Cavia porcellus [5] turned out to be 6%.

Regarding `O=C(O)Cc1cccc(OCc2ccc3ccccc3n2)c1`, the inhibition in vivo at 25 mg/kg in the data set with Cavia porcellus [9] was under 99%.

As to `c1cc(Cc2nnn[nH]2)cc(OCc2nc3ccccc3s2)c1`, in the data set on Cavia porcellus [7], the inhibition in vivo at 25 mg/kg is under 95%.

Regarding `CONC(=O)Cc1cccc(OCc2ccc3ccccc3n2)c1`, in the data set with Cavia porcellus [10], the pKb came out at 6.08. The figures for the inhibition in vivo at 3 mg/kg in the data set on Cavia porcellus [11], with Cavia porcellus [15] and with Cavia porcellus [22] were 44%, 38% and 2%, respectively. Besides, the ED50 in the data set on Cavia porcellus [12] was 7.9 mg/kg; in the data set on Cavia porcellus [17], 1.8 mg/kg; in the data set with Cavia porcellus [18], 7.3 mg/kg; in the data set listed under Cavia porcellus [20], 3.6 mg/kg. In addition, the inhibition in vivo at 10 mg/kg in the data set on Cavia porcellus [13] is 25%. For the same molecule, the inhibition in vivo at 25 mg/kg in the data set on Cavia porcellus [14] is 56%; in the data set with Cavia porcellus [16] it was 86%; with Cavia porcellus [19] it was 83%. The same molecule had an IC50 in data set [21] of 14.2 µM. The inhibition in vivo at 50 mg/kg in the data set with Rattus norvegicus was under 41%.

In the case of `c1ccc2nc(COc3ccc(-c4nn[nH]n4)cc3)ccc2c1`, the inhibition in vivo at 5 mg/kg with Cavia porcellus [23] was under 28%.

Regarding `CON(C)C(=O)Cc1cccc(OCc2ccc3ccccc3n2)c1`, the inhibition in vivo at 25 mg/kg in the data set on Cavia porcellus [3] came to 93%.

Consider `O=C(O)Cc1ccc(OCc2ccc3ccccc3n2)cc1`, for which the inhibition in vivo at 25 mg/kg in the data set with Cavia porcellus [3] is under -4%.

Consider `O=C(O)CCc1cccc(OCc2ccc3ccccc3n2)c1`, for which the inhibition in vivo at 25 mg/kg with Cavia porcellus [3] is under 75%.

`c1ccc(-c2nn[nH]n2)c(OCc2ccc3ccccc3n2)c1`: the inhibition in vivo at 25 mg/kg in the data set on Cavia porcellus [7] is under 31%.

Take `CONC(=O)Cc1cccc(OCc2nc3ccccc3n2C)c1`: the inhibition in vivo at 25 mg/kg in the data set with Cavia porcellus [3] is under 58%.

In the case of `CONC(=O)Cc1cccc(OCc2nc3ccccc3s2)c1`, in the data set with Cavia porcellus [3], the inhibition in vivo at 25 mg/kg is under -4%.

The term inhibition in vivo denotes the relative decrease from the control value, in per cent. As usually defined, the pKb is the negative decadic logarithm of the Kb, by convention in mol/L. A word on the ED50: it is the midpoint of the dose-response relation. A low value points to greater potency. As a reminder, the IC50 is the point on the concentration scale where inhibition reaches its midpoint. A higher IC50 goes with weaker potency in that assay.
